In patent publication US8450354B2, “Substituted imidazo[1,2-b]pyridazine derivatives, pharmaceutical compositions, and methods of use as β-secretase inhibitors” (High Point Pharmaceuticals, LLC, priority 2010, dated 2013) one finds IC50 data, which are given here for 25 molecules.

For the test, the target named is T1, BACE-1 enzyme (Homo sapiens, UniProt P56817).
T1 construct: purchased R & D Systems 931AS
T1 sequence (P56817 46-457 limits assumed): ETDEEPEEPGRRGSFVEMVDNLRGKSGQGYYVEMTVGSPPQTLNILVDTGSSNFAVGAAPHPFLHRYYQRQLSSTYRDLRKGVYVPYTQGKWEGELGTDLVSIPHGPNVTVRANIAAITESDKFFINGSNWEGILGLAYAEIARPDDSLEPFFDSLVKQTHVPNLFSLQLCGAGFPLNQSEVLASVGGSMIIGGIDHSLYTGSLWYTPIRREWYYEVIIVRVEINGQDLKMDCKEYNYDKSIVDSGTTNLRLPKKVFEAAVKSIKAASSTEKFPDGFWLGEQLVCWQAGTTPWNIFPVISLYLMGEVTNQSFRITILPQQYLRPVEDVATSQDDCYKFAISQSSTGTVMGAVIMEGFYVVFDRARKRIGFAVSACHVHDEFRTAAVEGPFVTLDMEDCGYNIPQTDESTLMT
Briefly: BACE Fluorescence Resonance Energy Transfer (FRET) Assay. Conditions: pH 4-4.5, 30 min pre-incubation, about 1.5 hours reaction, asterisk = mean. The test is classed as biochemical. As for the experimental part: BACE Fluorescence Resonance Energy Transfer (FRET) Assay
In the following assay, the proteolytic activity of BACE is measured by observing cleavage of a fluorescent group from a peptide substrate containing a rhodamine fluorescent donor and a quenching acceptor.
The inhibitory activity of compounds of Formula (I) may be compared to a statine derived control inhibitor STA200 (MP Biomedical Cat. #STA-200). The cleavage reaction occurs when a BACE-1 substrate (Invitrogen, Cat. #P2986) was added to a reaction mixture containing BACE-1 enzyme (R & D Systems, Cat. #931AS) and allowed to proceed for about 1.5 hours. Fluorescence, used as a marker of BACE activity, is monitored using 540 nm excitation and 585 nm emission wavelengths (Envision, Perkin Elmer).
A typical assay reaction contains BACE-1 enzyme-in assay buffer (50 mM sodium acetate, pH 4-4.5, 0.01% CHAPS (3-[(3-Cholamidopropyl)dimethylammonio]-1-propanesulfonate), 0.0125% TritonX-100, 0.006% EDTA) which is pre-incubated for 30 minutes with test compound in 7.5% DMSO. The reaction is initiated with the addition of BACE-1 substrate in assay buffer and allowed to proceed for about 1.5 hours at room temperature. Assays are conducted in black 384-well microtiter plates and scanned at room temperature using 540 nm excitation and 585 nm emission wavelengths.
In some instances, the percent inhibition at a given concentration is reported instead of the IC50.
In general, IC50 refers to the concentration needed to halve the response being measured. Molecule `CO[C@H]1CCN(c2ccc3nc(C(=O)Nc4nc5cc(-c6ccc(C)s6)ccc5[nH]4)cn3n2)C1` [Example 91] registered an IC50 of 2.34 µM.

The molecule `O=C(Nc1nc2cc(-c3cc(F)cc(Cl)c3)ccc2[nH]1)c1cn2nc(OCCN3CCCC3)ccc2n1` [Example 19] gave an IC50 of 0.166 µM.

In turn, `CC(C)(C)NCCOc1ccc2nc(C(=O)Nc3nc4cc(-c5cccc(C(F)(F)F)c5)ccc4[nH]3)cn2n1` [Example 24] displayed an IC50 of 0.291 µM.

On to `O=C(Nc1nc2cc(-c3cccc(C(F)(F)F)c3)ccc2[nH]1)c1cn2nc(OCCNC3CCCCC3)ccc2n1` [Example 39], for which the half-maximal inhibitory concentration (IC50) worked out at 0.197 µM.

Turning to `O=C(Nc1nc2cc(-c3cccc(C(F)(F)F)c3)ccc2[nH]1)c1cn2nc(N3CCNCC3)ccc2n1` [Example 80], the IC50 was determined as 0.2 µM.

Molecule `C[C@H](N)COc1ccc2nc(C(=O)Nc3nc4cc(-c5cccc(C(F)(F)F)c5)ccc4[nH]3)cn2n1` [Example 74] gave an IC50 of 0.219 µM.

Take `CCOCCOCCOc1ccc2nc(C(=O)Nc3nc4cc(-c5cccc(C(F)(F)F)c5)ccc4[nH]3)cn2n1` [Example 11]: half-maximal inhibition (IC50) required 0.32 µM.

Consider `CN(C)CCCOc1ccc2nc(C(=O)Nc3nc4cc(-c5cc(F)cc(Cl)c5)ccc4[nH]3)cn2n1` [Example 17], for which the IC50 worked out at 0.171 µM.

The molecule `COC1CCN(c2ccc3nc(C(=O)Nc4nc5cc(C6CCC(C)(C)CC6)ccc5[nH]4)cn3n2)CC1` [Example 87] yielded an IC50 of 0.56 µM.

`COc1ccc2nc(C(=O)Nc3nc4cc(OCc5ccc(C(F)(F)F)cc5)ccc4[nH]3)cn2n1` [Example 5] came in with a concentration for half-maximal inhibition (IC50) of 0.095 µM.

`CCOCCCOc1ccc2nc(C(=O)Nc3nc4cc(-c5cccc(C(F)(F)F)c5)ccc4[nH]3)cn2n1` [Example 13] came in with a 50% inhibitory concentration (IC50) of 0.368 µM.

Take `O=C(Nc1nc2cc(-c3cccc(C(F)(F)F)c3)ccc2[nH]1)c1cn2nc(O[C@H]3CCCNC3)ccc2n1` [Example 75]: the concentration for half-maximal inhibition (IC50) came to 0.36 µM.

`CC(C)NCCOc1ccc2nc(C(=O)Nc3nc4cc(-c5cccc(OC(F)(F)F)c5)ccc4[nH]3)cn2n1` [Example 28] came in with an IC50 of 0.253 µM.

`CC1CCC(c2ccc3[nH]c(NC(=O)c4cn5nc(N6CCOCC6)ccc5n4)nc3c2)CC1` (stereo not shown) [Example 81] displayed an IC50 of 0.393 µM.

`CN(C)CCOCCOc1ccc2nc(C(=O)Nc3nc4cc(-c5cccc(C(F)(F)F)c5)ccc4[nH]3)cn2n1` [Example 59] came in with an IC50 of 0.194 µM.

Molecule `CCC[C@H](O)COc1ccc2nc(C(=O)Nc3nc4cc(-c5cc(F)cc(Cl)c5)ccc4[nH]3)cn2n1` [Example 125] gave an IC50 of 1.18 µM.

Regarding `COCCOc1ccc2nc(C(=O)Nc3nc4cc(-c5cccc(C(F)(F)F)c5)ccc4[nH]3)cn2n1` [Example 8, 6-(2-Methoxy-ethoxy)-imidazo[1,2-b]pyridazine-2-carboxylic acid [5-(3-trifluoromethyl-phenyl)-1H-benzoimidazol-2-yl]-amide], the IC50 was determined as 0.28 µM.

For the molecule `C[C@@H](N)COc1ccc2nc(C(=O)Nc3nc4cc(-c5cccc(C(F)(F)F)c5)ccc4[nH]3)cn2n1` [Example 73], inhibition was half-maximal at 0.346 µM (IC50).

`CN(C)CCOc1ccc2nc(C(=O)Nc3nc4cc(-c5cc(F)cc(Cl)c5)ccc4[nH]3)cn2n1` [Example 15]: half-maximal inhibition (IC50) required 0.272 µM.

Consider `CN(C)CCCOc1ccc2nc(C(=O)Nc3nc4cc(-c5cccc(C(F)(F)F)c5)ccc4[nH]3)cn2n1` [Example 72], for which inhibition was half-maximal at 0.216 µM (IC50).

The molecule `Cc1ccc2nc(C(=O)Nc3nc4cc(OCc5ccccc5)ccc4[nH]3)cn2n1` [Example 6] returned a half-maximal inhibitory concentration (IC50) of 0.244 µM.

In turn, `CN1CCN(CCOc2ccc3nc(C(=O)Nc4nc5cc(-c6cc(F)cc(Cl)c6)ccc5[nH]4)cn3n2)CC1` [Example 55] displayed an IC50 of 0.212 µM.

On to `O=C(Nc1nc2cc(-c3cccc(OC(F)(F)F)c3)ccc2[nH]1)c1cn2nc(OCCNC3CCCCC3)ccc2n1` [Example 33], for which the midpoint of inhibition, the IC50, lay at 0.278 µM.

The molecule `CN1CCC[C@H]1COc1ccc2nc(C(=O)Nc3nc4cc(-c5cc(F)cc(Cl)c5)ccc4[nH]3)cn2n1` [Example 68] showed an IC50 of 0.344 µM.

On to `CO[C@@H]1CCN(c2ccc3nc(C(=O)Nc4nc5cc(-c6ccc(C)s6)ccc5[nH]4)cn3n2)C1` [Example 90], for which the IC50 was 1.38 µM.
